Consider seven compounds from US10440955B2, “Methods comprising a biocidal polyamine” (Curza Global, LLC, priority 2013, dated 2019).

One series relates to P. aeruginosa. Put plainly: MIC, 96-well CAMHB, 10^5 to 10^2 CFU/mL in 24 hours. The note with it: Pseudomonas aeruginosa. The class given is cell-based, Pseudomonas aeruginosa. Summed up:
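Broth microdilution in CAMHB with about 5×10^5 CFU/mL inoculum, incubated 24 h at 37 °C with graded polyamine compound concentrations. Surviving CFU/mL determined by plating each well on TSA for 24 h at 37 °C; n=8 per concentration.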

Series [1] relates to MRSA. Put plainly: MIC against MRSA (as defined by CLSI). As to conditions: Staphylococcus aureus, FIG. 25. The series is classed as cell-based. How it is done:
To determine the MIC of the polyamine chains alone and the synthesized compounds against MRSA and P. aeruginosa ATCC 27853, a modified protocol from the Clinical and Laboratory Standards Institute (CLSI) guideline M26-A was used. […] All data was collected using cation adjusted MHB for standardization.
As mentioned, MRSA and P. aeruginosa ATCC 27853 were grown on Columbia blood agar plates prior to experimentation. From the blood agar plates, a 0.5 McFarland standard was made of each isolate. This equated to approximately 5×10^7 cells/mL for the MRSA isolate and approximately 3×10^7 cells/mL for the P. aeruginosa ATCC 27853 isolate. Of the 0.5 McFarland stock solution, 50 μL were added to MHB. […] All tests were performed such that a final volume of 5 mL of MHB were obtained. This provided a final bacterial concentration of approximately 5×10^5 cells/mL.
Each sample was incubated in glass test tubes at 37° C. for 24 hours, then plated in duplicate on tryptic soy agar (TSA) using a 10-fold dilution series. TSA plates were further incubated 24 hours at 37° C. The number of colony forming units (CFU) that grew were counted in order to calculate the number of bacteria that were present per mL in the original MHB solution.

The test system of series [2] is MRSA. The experiment in a line: MIC, 96-well CAMHB, 10^5 to 10^2 CFU/mL in 24 hours. The series is classed as cell-based, Staphylococcus aureus. As to conditions: Staphylococcus aureus, MRSA, read-out: MIC (MRSA). Summed up: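 Compound exposure was 24 h at 37 °C in CAMHB with an inoculum of ~5×10^5 CFU/mL from a 0.5 McFarland; eight replicates per concentration.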

Another series deals with human blood. The experiment in a line: Hemolysis test with diluted human blood (ISO 10993-4). The class given is cell-based. From the text:
Procedure: The PBS used in testing was calcium and magnesium free. The method has been validated using human blood from one donor. This is in compliance with ISO 10993-4 which states due to differences in blood activity, human blood should be used where possible. Furthermore, pooling unmatched human blood from multiple donors may cause red blood cell agglutination which in turn could cause hemolysis; this supports the use of a single donor.
The blood was drawn using vacutainers containing 0.1 M sodium citrate at a ratio of 9:1 (3.2% anticoagulant to blood). The blood in this test was used within four hours of blood draw. The collected blood was refrigerated until testing was performed.
A hemoglobin standard was diluted with Drabkin's reagent to give solutions at concentrations of 0.80, 0.60, 0.40, 0.30, 0.20, 0.10, 0.02, and 0.01 mg/ml. These solutions were allowed to stand at room temperature for a minimum of five minutes. The absorbance was read on a spectrophotometer at 540 nanometers (nm). A standard curve was determined with the absorbance values and the standard concentrations of hemoglobin.
Human blood was centrifuged at 700-800×g for 15 minutes. A 1 mL aliquot of the plasma was added into 1 mL of Drabkin's reagent, and placed at room temperature for a minimum of 15 minutes. The absorbance was read on a spectrophotometer at 540 nm. The hemoglobin concentration was determined from the standard curve and then multiplied by a factor of 2 to obtain the total plasma free hemoglobin. The plasma free hemoglobin was less than 2 mg/mL (actual value 0.221 mg/mL). A 20 μL aliquot of blood was added to 5 mL of Drabkin's reagent in duplicate and allowed to stand at room temperature for a minimum of 15 minutes. The absorbance was read on a spectrophotometer at 540 nm then multiplied by 251 to account for the dilution.
Based on the plasma hemoglobin and the blood absorbance against Drabkin's reagent, the blood was diluted out to 10±1 mg/mL with PBS. To verify the blood dilution, a 300 μL aliquot of this blood was added to 4.5 mL of Drabkin's reagent in triplicate and allowed to stand at room temperature for a minimum of 15 minutes. The absorbance was read on a spectrophotometer at 540 nm then multiplied by 16 to account for the dilution.
Glass test tubes were labeled appropriately. Both samples were prepared the same way. The samples were allowed to thaw prior to testing. To each test tube, 7 mL of the test article and 1 mL of the diluted blood were added. The controls consisted of the appropriate amount of control material, 7 mL of PBS and 1 mL of blood. Three tubes were prepared for each test article and control. The tubes were incubated at 37±2° C. for 3 hours±5 minutes. Tubes were gently inverted twice at 30 minute intervals throughout the incubation period. A non-hemolytic negative control, a hemolytic positive control and a PBS blank were included.
After incubation, test articles were centrifuged at 700-800×g for 15 minutes and 1 mL of the supernatant fluid was combined with 1 mL of Drabkin's reagent and allowed to stand at room temperature for a minimum of 15 minutes. Following the centrifugation phase, the supernatant of both test articles visually appeared clear and were particulate free. The PBS blank and the negative control supernatant visually appeared clear and were particulate free. The supernatant of the positive control visually appeared red and were particulate free. The test articles and controls were read at 540 nm in a spectrophotometer.
The hemolytic index (percent hemolysis) was interpreted using the following equation:
[formula] Where: Hemoglobin Released (mg/mL)=(Optical Density×X Coefficient+Constant)×16 Hemoglobin Present (mg/ml)=Diluted Blood 10±1 mg/mL
The corrected hemolytic index was calculated by subtracting the hemolytic index of the PBS blank solution from the hemolytic index of the test article and controls. […]

Series [3] concerns various bacterial cell cultures. The experiment in a line: Antimicrobial activity of polyamines in hydrogel on agar lawns. The class given is cell-based. The note with it: 0.5% CZ compound in 0.5% sodium hyaluronate gel, 500 uL on TSA lawn, 37 C for 24 hours. As to the method:
A 0.5 McFarland standard of each bacteria was made, then individual lawns of bacteria spread onto the surface of tryptic soy agar (TSA). 500 uL of the suspended gel were placed on the center of each lawn. Plates were incubated at 37 C for 24 hours, then imaged. Images of the resulting gels are shown in FIGS. 30A to 30I show the effects of the polyamines CZ-86, CZ-100, and CZ-110 on various bacterial cell cultures.
The hydrogel that was used for those images is a LifeCore gel with 1% sodium hyaluronate (1% Sodium Hyaluronate Solution Part #82). The CZ compound was suspended in water at 1% (w/w) concentration and combined with the LifeCore gel 1:1 for a final product that contained 0.5% sodium hyaluronate and 0.5% CZ compound.

The next series deals with L-929 cells (ATCC CCL-1). The experiment in a line: Minimal Essential Media (MEM) Elution cytotoxicity test. The series is classed as cell-based. As to conditions: Table 9A. Summed up:
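L-929 cells (ATCC CCL-1) were seeded in multiwell plates and grown to roughly 80% confluence. Test article dilutions (1:2, 1:4, 1:8, 1:16) and control extracts were applied in triplicate and incubated 48±3 hours at 37±1° C. in 5±1% CO2. Wells were scored microscopically for morphological cytotoxicity on a 0–4 scale and averaged; Pass required grade not greater than 2 per USP <87>.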

The next series deals with A. baumannii. The experiment in a line: MIC, 96-well CAMHB, 10^5 to 10^2 CFU/mL in 24 hours. The note with it: Acinetobacter baumannii; Table 5; read-out: MIC (A. bumannii). The class given is cell-based, Acinetobacter baumannii. How it is done: To determine the MIC of polyamine compounds, the protocol described herein was used.
In brief, a 0.5 McFarland of each bacterial isolate was made. A 0.5 McFarland is a measure of turbidity in a liquid sample that contains approximately 1×10^∧8 CFU/mL. The 0.5 McFarland standard was diluted in cation adjusted Mueller Hinton Broth (CAMHB), and 50 μL of broth were added to a well of a 96-well plate. In addition, 50 μL of CAMHB that contained a desired concentration of antimicrobial were also added to the well for a final volume of 100 μL and a final concentration of approximately 5×10^4 CFU/well (which equated to approximately 5×10^5 CFU/mL). Each well contained a desired amount of polyamine compound in order to experimentally determine the MIC. Each 96-well plate was incubated at 37° C. for 24 hours. The contents of each well were plated on tryptic soy agar (TSA). TSA plates were incubated for 37° C. for 24 hours after which the number of CFU were counted and used to calculate the CFU/mL that remained after exposure to varying concentrations of compound. This procedure was repeated n=8 times for each concentration of antimicrobial.
A 0.5 McFarland of A. baumannii is made. A 0.5 McFarland is a measure of turbidity in a liquid sample that contains approximately 7.5×10^7 CFU/mL. The 0.5 McFarland standard is diluted in CAMHB and 50 μL of broth is added to a well of a 96-well plate. In addition, 50 μL of CAMHB that contains a desired concentration of antimicrobial is added to the well for a final volume of 100 μL and a final concentration of approximately 5×10^4 CFU/well (which equates to approximately 5×10^5 CFU/mL). Each well contains a desired amount of CZ compound in order to experimentally determine the MIC. Each 96-well plate is incubated at 37° C. for 24 hours. The contents of each well is plated on tryptic soy agar (TSA). TSA plates is incubated at 37° C. for 24 hours after which the number of CFUs is counted and used to calculate the CFU/mL that remain after exposure to varying concentrations of compound. This procedure is repeated n=8 times for each concentration of antimicrobial. […]

For a further series, the system named is biofilms of MRSA. As to conditions: understanding of the inventors; no own test described; cited from earlier work.
The mark [4] stands for this setting: Table 5, read-out: MIC (P. aeruginosa).

The MIC is the lowest concentration found to suppress growth.

Converted amounts (≈) assume the structure as drawn. Structures can show the parent of a compound that is named as a salt. Where two headings read alike, the source gives them in different places.

`NCCCNCc1ccccc1` [CZ-4, N^1-benzylpropane-1,3-diamine]: the MIC with P. aeruginosa (setting [4]) was over 100 µM; in the series on MRSA [1], over 1200 µg/mL; in the series on MRSA [2] (Table 5) it was over 100 µM.
As for `NCCCNCc1cccc(CNCCCN)c1` [CZ-12], the results for the MIC in the series with P. aeruginosa (setting [4]), in the series on MRSA [1] and with MRSA [2] (Table 5) were 50 to 100 µM (≈ 12.5 to 25 µg/mL), 300 µg/mL (≈ 1200 µM) and over 100 µM, respectively.
For the compound `CCC(CC)COc1cc(CNCCCNCCCN)cc(CNCCCNCCCN)c1` [CZ-90, N^1,N^1′-((5-(2-ethylbutoxy)-1,3-phenylene)bis(methylene))bis(N^3-(3-aminopropyl)propane-1,3-diamine), hydrochloride salt], the MIC in the series on P. aeruginosa (read-out: MIC (P. aeruginosa), Table 5) was under 50 µM. In addition, in the series on human blood, the “Average Hemolytic Index (% Hemolysis)” value turned out to be 0.76 % Hemolysis; the “Hemolytic Grade” value is “non-hemolytic”; the “difference between the hemolytic indexes of test article and negative control” value was found to be 0.00%. The “Average Optical Density” value in the series with human blood (540 nm) was found to be 0.003. Moreover, the “Optical Density” value with human blood (540 nm, three tubes, 37 ± 2° C., 3 hours) came out at 0.003. Moreover, in the series with human blood (hemolytic index of the PBS blank subtracted), the “Corrected Hemolytic Index (% Hemolysis)” value came out at 0.00 % Hemolysis. The “Hemolytic Index” value with human blood (three tubes) came out at 0.764. In addition, the minimal inhibitory concentration (MIC) in the series with MRSA [2] is under 50 µM.
In the case of `CCCCCCCCNCCCNCCCNCc1cccc(CNCCCNCCCNCCCCCCCC)c1` [CZ-100, N^1,N^1′-(1,3-phenylenebis(methylene))bis(N^3-(3-(octylamino)propyl)propane-1,3-diamine)], the MIC in the series with P. aeruginosa (setting [4]), with MRSA [2] (Table 5) and in the series with A. baumannii was under 50 µM in each case. For the same compound, in series [3], the “zones of inhibition in bacterial lawns” value is “created zones of inhibition”. Moreover, the “Results Pass/Fail” value with L-929 cells (ATCC CCL-1) (3.125 μg/mL) is given as “Pass (receives a passing score (Pass) if the reactivity grade is not greater than grade 2 or a mild reactivity)”; in the series on L-929 cells (ATCC CCL-1) (6.25 μg/mL), “Pass (receives a passing score (Pass) if the reactivity grade is not greater than grade 2 or a mild reactivity)”; with L-929 cells (ATCC CCL-1) (12.5 μg/mL) it was “Pass (receives a passing score (Pass) if the reactivity grade is not greater than grade 2 or a mild reactivity)”; in the series on L-929 cells (ATCC CCL-1) (25 μg/mL), “Fail (a numerical grade greater than 2 is considered a cytotoxic effect, or a failing score (Fail))”; with L-929 cells (ATCC CCL-1) (1.563 (unit not given)), “Pass (receives a passing score (Pass) if the reactivity grade is not greater than grade 2 or a mild reactivity)”.
On to `CCCCCCCCNCCCNCCCNCc1cc(CNCCCNCCCNCCCCCCCC)cc(OCC2CCCCC2)c1` [CZ-103, N^1,N^1′-((5-(cyclohexylmethoxy)-1,3-phenylene)bis(methylene))bis(N^3-(3-(octylamino)propyl)propane-1,3-diamine)], for which the MIC in the series on P. aeruginosa (setting [4]), in the series with MRSA [2] (Table 5) and with A. baumannii was under 50 µM in each case.
On to `CCCCCCCCNCCCNCCCNCc1cc(CNCCCNCCCNCCCCCCCC)cc(OCCCNCC(C)C)c1` [CZ-110, N^1,N^1′-((5-(3-(isobutylamino)propoxy)-1,3-phenylene)bis(methylene))bis(N^3-(3-(octylamino)propyl)propane-1,3-diamine)], for which the minimum inhibitory concentration (MIC) in the series with P. aeruginosa (setting [4]), in the series on MRSA [2] (Table 5) and with A. baumannii was under 50 µM in each case. Moreover, in series [3], the “zones of inhibition in bacterial lawns” value is on record as “created zones of inhibition”.
For `CC(C)(C)CC(C)(C)c1ccc(OCCOCC[N+](C)(C)Cc2ccccc2)cc1` [benzethonium chloride], the “biofilm dispersal effect (comparison)” value in the series on biofilms of MRSA is reported as “not seen”.
